From patent US12297189B2, “Crystalline forms of a 4-pyrimidinesulfamide derivative aprocitentan” (IDORSIA PHARMACEUTICALS LTD, priority 2017, dated 2025)

Tests used:
[1] = system: conscious, male hypertensive deoxycorticosterone acetate salt rats; assay: Chronic effects of repeated oral administration in DOCA-salt rats; assay type: in vivo, rat; settings: oral 1, 10 and 100 mg/kg/day for 4 weeks
Description: The chronic effects of repeated administrations of doses of 1, 10 and 100 mg/kg/day of COMPOUND, in particular mean arterial blood pressure (hereafter “MAP”), and heart rate (hereafter “HR”), were evaluated in conscious, male hypertensive deoxycorticosterone acetate salt rats (hereafter “DOCA-salt rats”—see details about this model in Gavras et al., Circ. Res. (1975), 36, 300-309). In the DOCA-salt rats, hypertension is induced by the combination of unilateral nephrectomy, implantation of pellets of the mineralocorticoid analog DOCA, and provision of 1% sodium chloride in drinking water. The results of the DOCA-salt rats treated with COMPOUND were compared to those obtained for Wistar rats or for DOCA-salt rats that received only the vehicle (4% gelatin aquous solution). • a) The results obtained regarding MAP are summarised in FIG. 16 wherein each data point is presented as a 24-hour mean. 6 rats were used for each of the 5 test groups (Wistar control rats [bottom line], DOCA-salt control rats [2nd line from top at day 28] and DOCA-salt rats receiving repeated administrations of doses of 1 mg/kg/day [top line at day 28], 10 mg/kg/day [3rd line from top at day 28] and 100 mg/kg/day [4th line from top at day 28] of COMPOUND).

male Wistar rats = assay: Effect on fluid retention (haematocrit) in Wistar rats; assay type: in vivo, rat; settings: single oral dose 1-30 mg/kg, 24 hours after administration
Description: A decrease in haematocrit (Hct) or haemoglobin occurs secondary to an increase in plasma volume and can be used as a marker of fluid retention. A single oral dose of aprocitentan (1-30 mg/kg) or vehicle (gelatin) was administered by gavage to male Wistar rats. Twenty-four hours after administration, sublingual blood was sampled under isoflurane-induced anesthesia. Haematocrit was measured using a hematology analyser.

[2] = system: conscious, male spontaneaously hypertensive rats; assay: Acute effects on MAP and HR by telemetry in spontaneously hypertensive rats; assay type: in vivo, rat; settings: SHRs, doses 1-300 mg/kg
Description: The acute effects of COMPOUND on blood pressure, in particular on mean arterial blood pressure (hereafter “MAP”), and heart rate (hereafter “HR”) were evaluated by means of telemetry in conscious, male spontancaously hypertensive rats (hereafter “SHRs”—see details about this model in Atanur et al., Genome Res. (2010), 20, 791-803). Groups of 4-6 SHRs were used for the vehicle (7.5% gelatin aquous solution) and each dose of COMPOUND tested (1, 3, 10, 30, 100, and 300 mg/kg). Effects of COMPOUND on HR and MAP were calculated for individual animals relative to the 24 h period before administering. The results obtained regarding MAP (maximal MAP decrease observed over 6 consecutive hours) are summarised in FIG. 11 (data are presented as mean±standard error of the mean). […] In contrast to MAP, HR was not affected.

[3] = system: conscious, male hypertensive Dahl salt-sensitive rats; assay: Acute effects on MAP and HR by telemetry in Dahl salt-sensitive rats; assay type: in vivo, rat; settings: Dahl-S rats, doses 0.3-300 mg/kg
Description: The acute effects of COMPOUND on blood pressure, in particular on mean arterial blood pressure (hereafter “MAP”), and heart rate (hereafter “HR”) were evaluated by means of telemetry in conscious, male hypertensive Dahl salt-sensitive rats (hereafter “Dahl-S rats”-see details about this model in Rapp, Hypertension (1982), 4, 753-763). Elevated blood pressure is induced in Dahl-S rats by providing 1% sodium chloride in drinking water. Groups of 6-7 Dahl-S rats were used for the vehicle (7.5% gelatin aquous solution) and each dose of COMPOUND tested (0.3, 1, 3, 10, 30, 100, and 300 mg/kg). Effects of COMPOUND on HR and MAP were calculated for individual animals relative to the 24 h period before administering. The results obtained regarding MAP (maximal MAP decrease observed over 6 consecutive hours) are summarised in FIG. 9 (data are presented as mean±standard error of the mean). […] In contrast to MAP, HR was not affected.

[4] = system: conscious, male hypertensive deoxycorticosterone acetate salt rats; assay: Acute effects on MAP and HR by telemetry in DOCA-salt rats; assay type: in vivo, rat; settings: doses 0.3-300 mg/kg
Description: The acute effects of COMPOUND on blood pressure, in particular on mean arterial blood pressure (hereafter “MAP”), and heart rate (hereafter “HR”) were evaluated by means of telemetry in conscious, male hypertensive deoxycorticosterone acetate salt rats (hereafter “DOCA-salt rats”—see details about this model in Gavras et al., Circ. Res. (1975), 36, 300-309). In the DOCA-salt rats, hypertension is induced by the combination of unilateral nephrectomy, implantation of pellets of the mineralocorticoid analog DOCA, and provision of 1% sodium chloride in drinking water. Groups of 6-11 DOCA-salt rats were used for the vehicle (7.5% gelatin aquous solution) and each dose of COMPOUND tested (0.3, 1, 3, 10, 30, 100, and 300 mg/kg). Effects of COMPOUND on HR and MAP were calculated for individual animals relative to the 24 h period before administering. The results obtained regarding MAP (maximal MAP decrease observed over 6 consecutive hours) are summarised in FIG. 10 (data are presented as mean±standard error of the mean). […] In contrast to MAP, HR was not affected.

[5] = system: subjects having essential hypertension; settings: phase 2 trial, cited from earlier work
patients with rHT = settings: 14 week phase 3 trial; cited from earlier work
[6] = Hygroscopicity by gravimetric vapour sorption (GVS); assay type: physicochemical; settings: 25° C., mass change between 40% and 80% RH, first adsorption scan
Description: Measurements are performed on a multi sample instrument SPS-100n (Projekt Messtechnik, Ulm, Germany) operated in stepping mode at 25° C. The sample is allowed to equilibrate at 40% RH before starting a pre-defined humidity program (40-0-95-0-95-40% RH, steps of 5% ΔRH and with a maximal equilibration time of 24 hours per step are applied. About 20 to 30 mg of each sample is used.
The mass change between 40% relative humidity and 80% relative humidity in the first adsorption scan is considered.
Form A e.g. as obtained from Example 1 is considered to be non-hygroscopic as determined by gravimetric vapor sorption (GVS) (see FIG. 19).

patients with diabetes = settings: cited from earlier work
[7] = Storage at room temperature of crystalline forms (XRPD, HPLC control); assay type: physicochemical; settings: 20-25° C.
Description: All XRPD patterns for the solid forms described herein have been obtained as described hereafter. X-ray powder diffraction patterns were collected on a Bruker D8 Advance X-ray diffractometer equipped with a Lynxeye detector operated with CuKα-radiation in reflection mode (coupled two Theta/Theta). Typically, the X-ray tube was run at of 40 kV/40 mA. A step size of 0.02° (2θ) and a step time of 76.8 see over a scanning range of 3-500 in 2θ were applied. The divergence slit was set to fixed 0.3. Powders were slightly pressed into a silicon single crystal sample holder with depth of 0.5 mm and samples were rotated in their own plane during the measurement. Diffraction data are reported using combined Cu Kα1 and Kα2 radiation, without Kα2 stripping. The accuracy of the 2θ values as provided herein is in the range of +/−0.1-0.2° as it is generally the case for conventionally recorded X-ray powder diffraction patterns. A sample of Form A crystals of the COMPOUND (as obtained according to Example 1 above) has been stored at a temperature of 20-25° C. at 92% relative humidity for 2 months. […] The same result was obtained after storage for 8 weeks under the above coditions. […] A sample of Form B crystals of a dichloromethane solvate of the COMPOUND (as obtained according to Example 2 above) has been stored in a closed vial (20 mg of Form B crystals being placed in a closed 4 mL vial) at a temperature of 20-25° C. for about 3 weeks. […] A sample of Form K crystals of a dimethylsulfoxide solvate of the COMPOUND (as obtained according to Example 7 above) has been stored in a closed vial (20 mg of Form K crystals being placed in a closed 4 mL vial) at a temperature of 20-25° C. for about 3 weeks.

With `NS(=O)(=O)Nc1ncnc(OCCOc2ncc(Br)cn2)c1-c1ccc(Br)cc1` [COMPOUND, {5-(4-bromo-phenyl)-6-[2-(5-bromo-pyrimidin-2-yloxy)-ethoxy]-pyrimidin-4-yl}-sulfamide] the “effect on DOCA-salt-induced increase in MAP” value [1] was “dose-dependently attenuated the DOCA-salt-induced increase in MAP”, the “effect on heart rate (HR)” value [1] was “without changing HR” and the “haematocrit (Hct), marker of fluid retention” value (male Wistar rats) was “did not impact on haematocrit”. The “effect on heart rate (HR)” value [2] was “not affected”, the “effect on heart rate (HR)” value [3] was “not affected” and the “effect on heart rate (HR)” value [4] was “not affected”. For the same compound, the body weight ([5]; at higher doses) was “increased body weight at higher doses”, the “cases of peripheral edema” value ([5]; at higher doses) was “four” and the “control of blood pressure” value ([5]; essential hypertension, monotherapy) was “may result in efficacious control of blood pressure”. The hemoglobin concentration [5] was “dose related decrease”.
For `COc1cc(OC)nc(O[C@H](C(=O)O)C(OC)(c2ccccc2)c2ccccc2)n1` [darusentan], the “withdrawal because of adverse events as compared with placebo” value (patients with rHT) is listed as “More patients withdrew”.
With `NS(=O)(=O)Nc1ncnc(OCCOc2ncc(Br)cn2)c1-c1ccc(Br)cc1` [Form C, {5-(4-bromo-phenyl)-6-[2-(5-bromo-pyrimidin-2-yloxy)-ethoxy]-pyrimidin-4-yl}-sulfamide] the “hygroscopicity (GVS)” value [6] was “slightly hygroscopic (increase in mass is less than 2% and equal to or greater than 0.2% mass/mass)”.
In the case of `COc1ccccc1Oc1c(NS(=O)(=O)c2ccc(C)cn2)nc(-c2ccncc2)nc1OC` [avosentan], the “treatment effect (reduction of proteinuria)” value (patients with diabetes) is listed as “showed significant treatment effect” and the “discontinuation of trial medications due to adverse events” value (patients with diabetes; predominantly fluid overload and congestive heart failure) is listed as “significantly increased discontinuation”.
For `NS(=O)(=O)Nc1ncnc(OCCOc2ncc(Br)cn2)c1-c1ccc(Br)cc1` [Form A, {5-(4-bromo-phenyl)-6-[2-(5-bromo-pyrimidin-2-yloxy)-ethoxy]-pyrimidin-4-yl}-sulfamide], the “solid form by X-ray powder diffraction after storage” value ([7]; 92% relative humidity, 2 months) was “still consisting only in Form A crystals”, the “degradation by HPLC control (peak area %) after storage” value ([7]; 92% relative humidity, 8 weeks) was “no significant degradation” and the “hygroscopicity (GVS)” value [6] was “non-hygroscopic”.
In the case of `NS(=O)(=O)Nc1ncnc(OCCOc2ncc(Br)cn2)c1-c1ccc(Br)cc1` [Form B, {5-(4-bromo-phenyl)-6-[2-(5-bromo-pyrimidin-2-yloxy)-ethoxy]-pyrimidin-4-yl}-sulfamide], the “solid form by X-ray powder diffraction after storage” value ([7]; closed vial, about 3 weeks) is reported as “transformed into Form A crystals”.
